Data as given in patent publication US20230101335A1, “EX VIVO TISSUE EXPLANT AND GRAFT PLATFORM AND USES THEREOF” (Massachusetts Institute of Technology, priority 2021, published 2023).
Like-named read-outs stand apart in the source and are kept apart here. One block for each molecule: values may come before it.

Key:
HT29 cells = experiment: CellTiter-Glo Luminescent cell viability assay; assay type: cell-based; settings: Homo sapiens, HT-29; System: Cell (HT29)
Colo320DM cells = experiment: CellTiter-Glo Luminescent cell viability assay; assay type: cell-based; settings: System: Cell (Colo320DM)
[1] = system: CRC organoids (APC−/TP53−/SMAD4− triple knockout); experiment: CellTiter-Glo cytotoxicity assay on CRISPR-engineered CRC organoids; settings: read-out: IC50 (uM) ± SD
[2] = system: CRC organoids engrafted in swine small intestine tissue; experiment: ex vivo CRC organoid-in-intestine platform, GFP+ tumor cells by flow cytometry; assay type: cell-based; settings: for IC50: System: Tissue (pig ex vivo colorectal cancer platform), 24 hours drug treatment
Caco2 cells = experiment: CellTiter-Glo Luminescent cell viability assay; assay type: cell-based; settings: Homo sapiens, Caco-2; System: Cell (Caco2)
HCT15 cells = experiment: CellTiter-Glo Luminescent cell viability assay; assay type: cell-based; settings: System: Cell (HCT15)
P-gp = P-gp (Homo sapiens, UniProt P08183); settings: previous work; cited from earlier work
Sequence of P-gp (P08183 whole entry): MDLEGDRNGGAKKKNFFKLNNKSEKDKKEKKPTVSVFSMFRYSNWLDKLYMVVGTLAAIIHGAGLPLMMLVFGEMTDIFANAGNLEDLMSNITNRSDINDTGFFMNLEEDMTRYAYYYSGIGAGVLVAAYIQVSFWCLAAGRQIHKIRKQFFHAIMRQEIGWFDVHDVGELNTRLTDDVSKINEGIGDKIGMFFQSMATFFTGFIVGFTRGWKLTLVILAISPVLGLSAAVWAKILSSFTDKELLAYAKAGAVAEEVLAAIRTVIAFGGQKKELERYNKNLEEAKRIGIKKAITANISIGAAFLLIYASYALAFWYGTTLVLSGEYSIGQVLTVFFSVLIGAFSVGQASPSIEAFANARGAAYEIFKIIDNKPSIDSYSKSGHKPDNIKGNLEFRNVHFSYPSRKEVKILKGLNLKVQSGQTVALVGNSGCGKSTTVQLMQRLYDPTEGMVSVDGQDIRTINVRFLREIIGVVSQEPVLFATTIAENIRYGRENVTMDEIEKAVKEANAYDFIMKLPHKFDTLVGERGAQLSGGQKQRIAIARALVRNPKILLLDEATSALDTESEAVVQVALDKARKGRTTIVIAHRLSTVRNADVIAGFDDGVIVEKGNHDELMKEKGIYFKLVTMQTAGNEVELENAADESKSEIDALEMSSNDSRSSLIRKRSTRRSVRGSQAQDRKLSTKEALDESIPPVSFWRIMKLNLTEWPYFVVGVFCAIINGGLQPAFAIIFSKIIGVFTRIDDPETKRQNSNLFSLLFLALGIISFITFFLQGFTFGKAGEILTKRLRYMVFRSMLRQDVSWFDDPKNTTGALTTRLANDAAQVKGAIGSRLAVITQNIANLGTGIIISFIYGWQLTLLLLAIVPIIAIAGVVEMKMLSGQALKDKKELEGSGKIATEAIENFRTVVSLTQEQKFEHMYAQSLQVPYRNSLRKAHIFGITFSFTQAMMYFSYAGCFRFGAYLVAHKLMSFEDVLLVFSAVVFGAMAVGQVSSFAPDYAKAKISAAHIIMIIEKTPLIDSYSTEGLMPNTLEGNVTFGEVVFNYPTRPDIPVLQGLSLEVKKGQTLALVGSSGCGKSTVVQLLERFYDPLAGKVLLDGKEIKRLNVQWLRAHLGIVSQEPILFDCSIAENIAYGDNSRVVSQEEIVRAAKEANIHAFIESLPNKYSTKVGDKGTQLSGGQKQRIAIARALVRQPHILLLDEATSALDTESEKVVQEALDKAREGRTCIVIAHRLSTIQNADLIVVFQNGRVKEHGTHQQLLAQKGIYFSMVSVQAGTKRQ

Molecule: COc1cccc2c1C(=O)c1c(O)c3c(c(O)c1C2=O)C[C@@](O)(C(=O)CO)C[C@@H]3O[C@H]1C[C@H](N)[C@H](O)[C@H](C)O1 [Doxirubicine, doxorubicin]
IC50 (HT29 cells): 3.88 ± 2.13 µM
IC50 (Colo320DM cells; Homo sapiens, COLO 320DM): 6.99 ± 1.23 µM
IC50 ([1]; Sus scrofa): 10.1 ± 2.33 µM
IC50 ([2]; Sus scrofa): 0.739 ± 0.082 µM
IC50 (Caco2 cells): 2.85 ± 0.712 µM
IC50 (HCT15 cells; Homo sapiens, HCT-15): 1.51 ± 0.226 µM

IC50 ([2]; Sus scrofa): 0.499 ± 0.087 µM
Molecule: CS(=O)(=O)CCNCc1ccc(-c2ccc3ncnc(Nc4ccc(OCc5cccc(F)c5)c(Cl)c4)c3c2)o1 [Lapatinib, lapatinib]
IC50 ([1]; Sus scrofa): 0.39 ± 0.21 µM

Molecule: O=C1[O][Pt]2([NH][C@@H]3CCCC[C@H]3[NH]2)[O]C1=O [Oxiliplatin, oxaliplatin]
IC50 (Colo320DM cells): 10.5 ± 1.71 µM
IC50 ([1]; System: Organoid (without transplantation into tissue)): 18 ± 4.72 µM
IC50 [2]: 8.61 ± 3.38 µM
IC50 (HCT15 cells): 15.5 ± 4.99 µM

Molecule: vitamin A
potency of irinotecan in combination with predicted P-gp modulator ([2]; ex vivo CRC platform, FIGS. 8B-8C, one-way ANOVA p<0.05): significantly increased the potency irinotecan
P-gp inhibition and drug uptake (P-gp): inhibit P-gp and increase drug uptake
